Measured values as given in patent US8642656B2, “Calixarene-based peptide conformation mimetics, methods of use, and methods of making” (priority 2004, dated 2014).
pIC50: −log10 of the molar value.

Key:
endothelial cell (EC) = assay: EC Proliferation Assay, [3H]thymidine incorporation (Example 36, Table 1); assay type: cell-based; details: read-out: EC proliferation IC50 (conc)
Description: Human umbilical vein derived EC(HUVEC) were harvested from normal human umbilical cords by perfusion with 0.125% trypsin/EDTA as described in Groenewegen et al., J. Exp. Med. 164, 131-143 (1986). For determination of quiescent EC phenotype isolated ECs were immediately fixed in 1% paraformaldehyde. Human microvascular ECs (MVECs) were isolated. ECs were cultured in fibronectin coated tissue culture flasks in culture medium (RPMJ-1640 with 20% human serum (HS), supplemented with 2 mM glutamine and 100 U/ml penicillin and 0.1 mg/ml streptomycin).
EC proliferation was measured using a [^3H]thymidine incorporation assay. ECs were seeded at 5000 cells/well in flatbottomed tissue culture plates and grown for 3 days, in the absence or presence of regulators, in culture medium. During the last 6 hours of the assay, the culture was pulsed with 0.5μ Ci [methyl-^3H]thymidine/well.

EC [1] = assay: EC % apoptosis (Table 1); assay type: cell-based, human
EC [2] = assay: EC % total cell death (Table 1); assay type: cell-based, human
Fibro = assay: Other cells, Fibro (Table 1); assay type: cell-based
MA148 = assay: Other cells, MA148 (Table 1); assay type: cell-based, human
SCK = assay: Other cells, SCK (Table 1); assay type: cell-based
E. coli J96 = assay: Bactericidal assay on J96; assay type: cell-based; details: for pIC50: read-out: Bacterial activity on J96 IC50 (conc)
Text: Pseudomonas aeruginosa type 1 is a clinical, smooth strain isolate stereotyped by using the scheme of Homma et al., Japan. J. Exp. Med. 46, 329-336 (1976) and maintained in the lab by monthly transfer on blood agar plates. E. coli J96, IA2, and H5 are smooth strain, uropathogenic clinical isolates kindly maintained and provided by J. R. Johnson and described in Johnson et al., J. Infect. Disease 173, 920-926 (1996) for J96 and IA2 and in Johnson et al., J. Infect. Disease 173, 746-749 (1996) for H5. J5 is an E. coli rough strain initially referenced by G. R. Siber and discussed in Warren et al., Infect. Immunity 55, 1668-1673 (1987) and is analogous to the smooth strain E. coli 0111:B4 used in the BioWhittaker LAL endotoxin detection and quantitation kit described below. Gram-positive MN8 and MNHO are two patient isolates of Staphylococcus aureus, which were kindly provided by P. M. Schlievert and described in Bohach et al., Rev. Infect. Diseases 11, 75-82 (1989) for MNHO and in Schlievert et al., J. Infect. Diseases 147, 236-242 (1983) for MN8. All cultures are maintained on nutrient agar plates.
Pyrogen-free solutions were used throughout the assay. Log phase bacteria were obtained by transferring an overnight culture or scraping crystals off-85° C glycerol stocks of overnight cultures. Bacteria were washed and resuspended in 0.9% sodium chloride with adjustment to an optical density at 650 nm which yields 3×10^8 CFU/ml. Bacteria were then diluted 1:10 in 0.08 M citrate phosphate buffer, pH 7.0 (prepared by mixing 0.08 M citric acid with 0.08 M dibasic sodium phosphate). Bacteria (0.15 ml) were incubated with the test compound in a final volume of 1.0 ml of buffer. The assay was done in 17×100 polypropylene tubes in a reciprocal water bath shaker at 37° C for 30 minutes. Following this 30 minute (min) incubation. 10-fold dilutions were made in 0.9% sodium chloride. Dilutions were done to 10^−4 and 20 μl of each dilution was streaked across an agar plate. Gram-positive organisms were plated on nutrient agar plates containing 2% agar and Gram-negative organisms were plated on MacConkey agar (2%). Plates were incubated overnight at 37° C and counted the next morning. The dilution containing 10-100 bacteria was counted and the number multiplied by 50 to adjust all counts to the number bacteria killed per milliliter. Compound concentrations were converted to logarithm base ten and graphed. Bactericidal activity was determined by dose response where LD50 values were determined by best fits of a sigmoidal curve to the dose response data.

Hemolysis (Table 1) = assay type: cell-based
Solubility (Table 1) = assay type: physicochemical
[3] = tested on: LPS from E. coli serotype 0111:B4; assay: LPS neutralization assay (Limulus amoebocyte lysate, QCL-1000); assay type: biochemical; details: Table 3; errors estimated ±30%; read-out: IC50 values (μM) for LPS binding, E. coli 0111:B4
Text: (§1) The ability of compounds to neutralize endotoxin was detected in vitro by using the chromogenic QCL-1000 kit from BioWhittaker, Inc. (Walkersville, Md.), and as described in their protocol. This Limulus amoebocyte lysate (LAL) assay is quantitative for Gram negative bacterial endotoxin (lipopolysaccharide, LPS). In this assay compounds that are active inhibit the LPS-mediated activation of a proenzyme whose active form would release p-nitroaniline (pNA) from a colorless synthetic substrate producing a yellow color (pNA) whose absorption is monitored spectrophotometrically at 405-410 nm. The initial rate of enzyme activation is proportional to the concentration of endotoxin present.
(§2) Variants of LPS from six Gram negative bacteria were used: E. coli serotypes 0111:B4 (Combrex, Walkersville, Md.) and 055:B5 (Sigma, St. Louis, Mo.); Klebsiella pneumoniae (List Biologies, San Jose, Calif.); Pseudomonas aeruginosa (List Biologies, San Jose, Calif.); Salmonella typhimurium (List Biologies, San Jose, Calif.), and Serratia marcascens (List Biologies, San Jose, Calif.). The concentration of compound required to neutralize a given LPS and therefore to inhibit the Limulus amoebocyte lysate driven by 0.04 units of any given LPS was determined by dose response curves fit by using a standard sigmoidal function to determined the JC50 value for each lopomimetic compound. The 0.04 units corresponds to 0.01 ng LPS from E. coli serotype 055:B5, 0.01 ng LPS from E. coli serotype 0111:B4, 0.003 ng LPS from K. pneumoniae, 0.01 ng LPS from P. aeruginosa, 0.03 ng LPS from S. typhimurium, and 0.03 ng LPS from S. marcascens.

[4] = tested on: LPS from E. coli serotype 055:B5; assay: as above; assay type: biochemical; details: Table 3; errors estimated ±30%; read-out: IC50 values (μM) for LPS binding, E. coli 055:B5
Text: as §1, §2

LPS from P. aeruginosa = assay: as above; assay type: biochemical, Pseudomonas aeruginosa; details: Table 3; errors estimated ±30%; read-out: IC50 values (μM) for LPS binding, P.a.
Text: as §1, §2

LPS from K. pneumoniae = assay: as above; assay type: biochemical, Klebsiella pneumoniae; details: Table 3; errors estimated ±30%; read-out: IC50 values (μM) for LPS binding, Klebsiella
Text: as §1, §2

LPS from S. typhimurium = assay: as above; assay type: biochemical, Salmonella typhimurium; details: Table 3; errors estimated ±30%; read-out: IC50 values (μM) for LPS binding, Salmonella
Text: as §1, §2

LPS from S. marcascens = assay: as above; assay type: biochemical, Serratia marcascens; details: Table 3; errors estimated ±30%; read-out: IC50 values (μM) for LPS binding, Serratia
Text: as §1, §2

bFGF-stimulated HUVEC = assay: EC proliferation, [3H]-thymidine incorporation, bFGF-stimulated HUVEC (Example 48); assay type: cell-based, human; details: bFGF-stimulated HUVEC; highest dose tested 25 μM
Description: Proliferation is expressed as mean counts per minute (cpm) of quadruplicate cultures in three independent experiments (±SEM). […] Human umbilical vein derived EC (HUVEC) were harvested from normal human umbilical cords by perfusion with 0.125% trypsin/EDTA. Harvested HUVECs were cultured in gelatin coated tissue culture flasks and subcultured 1:3 once a week in culture medium (RPM1-1640 with 20% human serum (HS), supplemented with 2 mM glutamine and 100 U/mL penicillin and 0.1 mg/mL streptomycin). Statistical analysis was performed by using the Student's t-test.

fibroblasts = assay: Proliferation of fibroblasts (general cell toxicity check); assay type: cell-based; details: read-out: concentration giving 50% growth inhibition, fibroblasts
[5] = tested on: MA148 human ovarian carcinoma; assay: Proliferation of MA148 tumor cells; assay type: cell-based; details: read-out: IC50 against MA148 tumor cells
B16F10 tumor cells = assay: Proliferation of B16F10 tumor cells; assay type: cell-based, murine; details: read-out: IC50 against B16F10 tumor cells
HUVEC = assay: EC migration, wound healing assay; assay type: cell-based, human; details: 25 μM
Description: EC migration was measured in the wound healing assay. HUVEC were cultured in triplicate on a 1-mg/ml fibronectin coat in a 24-well tissue culture plate. Cells were grown for 3 days until confluence. When confluent, a wound was made in the well, using a blunt glass pipette. The medium was replaced with medium containing 10 ng/ml bFGF with or without 25 μM compound and at 0, 2, 4, 6, and 8 hours, the wound width was measured at four different predefined places. Photographs were made using an inverted microscope and a Contax 167 MT 35 mm camera.

In the case of CC(C)(C)c1cc2c(O)c(c1)Cc1cc(C(C)(C)C)cc(c1OCCNC(=N)N)Cc1cc(C(C)(C)C)cc(c1O)Cc1cc(C(C)(C)C)cc(c1OCCNC(=N)N)C2, the pIC50 (endothelial cell (EC)) was 5.08, the “EC % Apoptosis 25 μM” value (EC [1]) was “No effect” and the “EC % total cell death” value (EC [2]) was 65%. The “Other cells 25 μM, Fibro” value (Fibro) was 100% 100% 100%, the “Other cells 25 μM, MA148” value (MA148) was 100% 100% 100% and the “Other cells 25 μM, SCK” value (SCK) was 100% 100% 100%. The pIC50 (E. coli J96) was under 5.42, the Hemolysis (Hemolysis (Table 1); at 10^−6 M) was 100% at 10^−6 M and the Solubility (Solubility (Table 1); DMSO/H2O (30/70%), at >80° C., no infl. of pH 2 + 11) was “DMSO/H2O (30/70%) up to 30 mg/ml at >80° C., no infl. of pH 2 + 11”.

For CCCc1cc2c(OCC(=O)NCCN(C)C)c(c1)Cc1cc(CCC)cc(c1OCC(=O)NCCN(C)C)Cc1cc(CCC)cc(c1OCC(=O)NCCN(C)C)Cc1cc(CCC)cc(c1OCC(=O)NCCN(C)C)C2 [Compound 11a], the “bactericidal activity (in words)” value (E. coli J96; in the micromolar range (Table 1)) was “reasonably good bactericidal activity”, the IC50 [3] was over 5 µM and the IC50 [4] was 4.4 µM. For the same compound, the IC50 (LPS from P. aeruginosa) was over 5 µM, the IC50 (LPS from K. pneumoniae) was 0.08 µM and the IC50 (LPS from S. typhimurium) was 4.1 µM. The IC50 (LPS from S. marcascens) was over 5 µM, the pIC50 (bFGF-stimulated HUVEC) was under 4.60 and the pIC50 (fibroblasts) was about 4.70. For the same compound, the pIC50 [5] was 5.10, the pIC50 (B16F10 tumor cells) was 4.82 and the “effect on EC migration, wound assay (in words)” value (HUVEC) was “ineffective”.

In the case of CN(C)CCNC(=O)COc1c2cccc1Cc1cccc(c1OCC(=O)NCCN(C)C)Cc1cccc(c1OCC(=O)NCCN(C)C)Cc1cccc(c1OCC(=O)NCCN(C)C)C2 [drawing 7], the pIC50 (endothelial cell (EC)) was 5.60, the “EC % Apoptosis 25 μM” value (EC [1]) was “No effect” and the “EC % total cell death” value (EC [2]) was “No effect”. For the same compound, the “Other cells 25 μM, Fibro” value (Fibro) was 0%, the “Other cells 25 μM, MA148” value (MA148) was 80% and the “Other cells 25 μM, SCK” value (SCK) was 40%. For the same compound, the pIC50 (E. coli J96) was under 5.42, the Hemolysis (Hemolysis (Table 1); at 10^−5 M) was “None at 10^−5 M” and the Solubility (Solubility (Table 1); H2O, at pH <7.0, r.t.) was “H2O up to 30 mg/ml at pH <7.0, r.t”.
